Measurements from US20090074750A1, “REGULATOR OF BASAL CELLULAR CALCIUM CONCENTRATION AND METHODS OF USE” (priority 2007, published 2009).

Tested on: HeLa cells
Assay: YFP-Stim2 localization after thapsigargin ER Ca^2+ store depletion (confocal imaging)
Format: cell-based, human
Conditions: 1 uM thapsigargin
Protocol: FIG. 3. Stim2 translocates to ER-PM junctions following ER Ca^2+ depletion. (A-C) YFP-Stim2 was expressed (˜24 hour) in HeLa (A), HUVEC, (B), and HEK293T (C) cells and confocal images were taken before and 2 minutes after 1 uM thapsigargin addition. […] HeLa cells were transfected for two days with ORAI1 siRNA and transfected for 24 hours with YFP-Stim2. Cells used in the analysis expressed YFP at 7.5 to 15 fold above background. N=10 sites.
Confocal imaging was performed using a Zeiss spinning disk confocal. Cells were imaged in extracellar buffer as described in the Ca^2+ measurements section.
We employed the YFP tagged Stim2 construct to investigate its localization and activation mechanism. Cells with submaximal YFP-Stim2 expression were selected to minimize expression artifacts. […] We observed the same YFP-Stim2 puncta formation in HeLa, Huvec, and HEK293T cell lines (FIGS. 3A-C). We then compared Stim1 and Stim2 localization by co-transfection of CFP-Stim1 and YFP-Stim2 followed by thapsigargin-induced depletion of ER Ca^2+ stores. CFP-Stim1 and YFP-Stim2 were co-localized in the same puncta that have previously been characterized as ER-PM junction sites (FIG. 3D) (Liou et al., 2005, Wu et al., 2006). […]

C/C=C(/C)C(=O)O[C@H]1C(C)=C2[C@H]([C@@H]1OC(=O)CCCCCCC)[C@@](C)(OC(C)=O)C[C@H](OC(=O)CCC)[C@@]1(O)[C@H]2OC(=O)[C@@]1(C)O [thapsigargin]
YFP-Stim2 translocation to PM localized puncta: rapid translocation
